From patent US9408796B2, “Cosmetic compositions for improving the appearance of skin” (Avon Products, Inc., priority 2013, dated 2016)

Columns and labels:
[1] = tested on: Human dermal fibroblasts; test: Collagen stimulation: procollagen type I C-peptide (PIP) EIA on conditioned medium; format: cell-based; details: 0.0005% compound, 48-hour incubation, increase in collagen over the vehicle control
Protocol: (§1) Collagen. Human dermal fibroblasts (Cascade Biologics, Portland, Oreg.) were plated at in 96-well culture plates in supplemented medium (DMEM, 10% Fetal Bovine Serum, 1% Penicillin/Streptomycin and 1% L-Glutamine) overnight in humidified atmosphere of 10% CO2 at 37° C. The following day, the medium was replaced with fresh medium (DMEM, 1% Penicillin/Streptomycin and 1% L-Glutamine) and the actives dissolved in a vehicle were added to the wells in triplicate. Vehicle was used as control. Following 48-hour incubation, the plates were removed from the incubator and the medium from each well was collected for the procollagen assay.
Collage production was measured using procollagen type I C-peptide (PIP) EIA kit (Takara Bio, Inc., Japan). Briefly, the conditioned medium was diluted 1:10 in Sample Diluent. 20 μl of diluted conditioned medium and 100 μl of antibody-POD conjugate solution were added to the wells of the Takara ELISA plate. The ELISA plate was incubated at 37° C. for 3 hours before the wells were washed four times with 400 μl of 1×PBS. At the end of wash, 100 μl of substrate solution (supplied with kit) was added to the wells and incubated at room temperature for 15 minutes. […] The absorbance was measured on a spectrophotometer at 450 nm wavelength. The amount of procollagen peptide in the conditioned medium was calculated from the standard curve. […]

[2] = tested on: Human dermal fibroblasts; test: Hyaluronic acid stimulation: hyaluronic acid test kit on conditioned medium; format: cell-based; details: 0.0005% compound, 48-hour incubation, increase in hyaluronic acid over the vehicle control
Protocol: as §1, with “Human” for “Collagen. Human”, “hyaluronic acid” for “procollagen”
Hyaluronic acid production was measured using hyaluronic acid test kit (Corgenix, Inc. CO, USA). Briefly, 100 μl diluted conditioned medium was added to appropriate microwells and was incubated for 60 minutes at room temperature. After the incubation is complete, the conditioned medium was removed and 100 μl HRP-conjugated HABP solution was added to each well and incubated for 30 minutes at room temperature. Wash each well 4 times with PBS after the incubation is complete. Add 100 μl One-component Substrate Solution to each well and incubate for 30 minutes at room temperature. Add 100 μl Stopping Solution to stop the enzyme reaction and read the O.D. of each well at 450 nm. The amount of hyaluronic acid in the conditioned medium was calculated from the standard curve. […]

SMILES | Collagen stimulation [1] | Hyaluronic acid stimulation [2]
COc1ccccc1CNc1nc(-c2ccc(O)c(C(N)=O)c2)cs1 [Formula I(c)] | + (The “+” describes a stimulation of between 21-40%) | –
COc1cccc(-c2nc(-c3ccc(O)c(C(N)=O)c3)cs2)c1OC [Formula I(d)] | + (The “+” describes a stimulation of between 21-40%) | + (The “+” describes a stimulation of between 21-40%)
